A short description of data set [1]: Binding affinity to purified p-glycoprotein by fluorescence quenching assay.
Data set [2] in a line: Binding affinity to microtubule after 30 mins by epothilone-B competition binding assay.
In data set [3] the test system is A2780. The data set is described as follows: Cytotoxicity against human A2780 cells after 48 hrs by MTT assay. The data set is classed as functional, cell-based. The following applies: A2780, 48 h.
A short description of data set [4]: Cytotoxicity against multidrug-resistant human A2780AD cells overexpressing p-gp after 48 hrs by MTT assay. The data set is classed as functional, cell-based. To be noted: A2780 ADR.
The subject of data set [5] is A2780. The data set is described as follows: Resistant index, ratio of IC50 for multidrug-resistant human A2780AD cells overexpressing p-gp to IC50 for human A2780 cells. It counts as functional.
The nature of data set [6]: Apparent permeability from apical to basolateral side of human Caco2 cells at 10 uM by LC/MS/MS analysis. It counts as ADME, cell-based. The following applies: Caco-2. A general note: Caco-2 monolayers are a common model of the intestinal barrier.
The nature of data set [7]: Apparent permeability from basolateral to apical side of human Caco2 cells at 10 uM by LC/MS/MS analysis. It counts as ADME, cell-based. To be noted: Caco-2.
A short description of data set [8]: Efflux ratio of permeability from basolateral to apical side to apical to basolateral side in human Caco2 cells at 10 uM by LC/MS/MS analysis. The data set is classed as ADME, cell-based. To be noted: Caco-2.

`C/C=C(\C)C(=O)N[C@@H](c1ccccc1)[C@@H](O)C(=O)O[C@H]1C[C@@]2(O)[C@@H](OC(=O)c3cccc(N=[N+]=[N-])c3)[C@@H]3[C@]4(OC(C)=O)CO[C@@H]4C[C@H](OC(=O)OCC)[C@@]3(C)C(=O)[C@H](O)C(=C1C)C2(C)C`: the results for the Kd in data set [1] and in data set [2] were 1420 nM and 0.9 nM, respectively. In addition, the IC50 – broadly, the point on the concentration scale where inhibition reaches its midpoint – came to 11.2 nM in the data set with A2780 [3] and 170 nM in data set [4]. In the data set on A2780 [5], the “Ratio IC50” value was 15.2. Further, the Papp A→B (in general, the apparent permeability from the apical to the basolateral side of a cell layer) at 10 µM in data set [6] was 7.46 ×10⁻⁶ cm/s. The Papp B→A (commonly the apparent permeability from the basolateral to the apical side of a cell layer) at 10 µM in data set [7] came to 12.6 ×10⁻⁶ cm/s. The efflux ratio – broadly, the permeability from basolateral to apical divided by that in the opposite direction, in the common usage – at 10 µM in data set [8] was 1.68.
For the molecule `CC(=O)O[C@H]1C(=O)[C@@]2(C)[C@H]([C@H](OC(=O)c3ccccc3)[C@]3(O)C[C@H](OC(=O)[C@H](O)[C@@H](NC(=O)c4ccccc4)c4ccccc4)C(C)=C1C3(C)C)[C@]1(OC(C)=O)CO[C@@H]1C[C@@H]2O` [PACLITAXEL], the Kd (in general, the free concentration of one partner at which half of the binding sites on the other are occupied at equilibrium, for simple one-to-one binding) was 35 nM in data set [1] and 56 nM in data set [2]. Further, the IC50 is 0.62 nM with A2780 [3] and 1900 nM in data set [4]. Moreover, the “Ratio IC50” value with A2780 [5] is 3064. The Papp A→B at 10 µM in data set [6] stood at 0.66 ×10⁻⁶ cm/s. The Papp B→A at 10 µM in data set [7] came to 5.03 ×10⁻⁶ cm/s. Besides, the efflux ratio at 10 µM in data set [8] turned out to be 7.62.
Regarding `CC(C)NCC(O)COc1cccc2ccccc12` (stereo not given) [PROPRANOLOL], the Papp A→B at 10 µM in data set [6] was 19.2 ×10⁻⁶ cm/s. In addition, the Papp B→A at 10 µM in data set [7] came to 23.4 ×10⁻⁶ cm/s. In data set [8], the efflux ratio at 10 µM amounted to 1.21.
For `C/C=C(\C)C(=O)N[C@@H](c1ccccc1)[C@@H](O)C(=O)O[C@H]1C[C@@]2(O)[C@@H](OC(=O)c3cccc(N=[N+]=[N-])c3)[C@@H]3[C@]4(OC(C)=O)CO[C@@H]4C[C@H](OC(=O)CC)[C@@]3(C)C(=O)[C@H](O)C(=C1C)C2(C)C`, the equilibrium dissociation constant (Kd) in data set [1] was found to be 498 nM; in data set [2], 1.1 nM. Besides, the results for the IC50 (in the data set with A2780 [3]; in data set [4]) were 2.7 nM and 14 nM, respectively. The “Ratio IC50” value with A2780 [5] is 5.2. The Papp A→B at 10 µM in data set [6] amounted to 0.095 ×10⁻⁶ cm/s. For the same molecule, in data set [7], the Papp B→A at 10 µM turned out to be 0.265 ×10⁻⁶ cm/s. For the same molecule, the efflux ratio at 10 µM in data set [8] was determined as 2.79.
Turning to `C/C=C(\C)C(=O)N[C@@H](c1ccccc1)[C@@H](O)C(=O)O[C@H]1C[C@@]2(O)[C@@H](OC(=O)c3cccc(N=[N+]=[N-])c3)[C@@H]3[C@]4(OC(C)=O)CO[C@@H]4C[C@H](OC(=O)CN(C)C)[C@@]3(C)C(=O)[C@H](O)C(=C1C)C2(C)C`, the Kd in data set [1] is 2380 nM; in data set [2], 1.48 nM. In addition, the IC50 came out at 7.2 nM with A2780 [3] and 3200 nM in data set [4]. The “Ratio IC50” value in the data set on A2780 [5] came to 444.4. Moreover, in data set [6], the Papp A→B at 10 µM came out at 4.19 ×10⁻⁶ cm/s. For the same molecule, in data set [7], the Papp B→A at 10 µM amounted to 27 ×10⁻⁶ cm/s. For the same molecule, the efflux ratio at 10 µM in data set [8] worked out at 6.44.
Turning to `C/C=C(\C)C(=O)N[C@@H](c1ccccc1)[C@@H](O)C(=O)O[C@H]1C[C@@]2(O)[C@@H](OC(=O)c3cccc(N=[N+]=[N-])c3)[C@@H]3[C@]4(OC(C)=O)CO[C@@H]4C[C@H](OC(=O)NC)[C@@]3(C)C(=O)[C@H](O)C(=C1C)C2(C)C`, the Kd in data set [1] was found to be 3150 nM; in data set [2], 2.15 nM. Moreover, the results for the IC50 (in the data set on A2780 [3]; in data set [4]) were 7.4 nM and 1400 nM, respectively. For the same molecule, the “Ratio IC50” value with A2780 [5] came to 189.2. Also, the Papp A→B at 10 µM in data set [6] stood at 2.55 ×10⁻⁶ cm/s. The Papp B→A at 10 µM in data set [7] was determined as 19.1 ×10⁻⁶ cm/s. Also, in data set [8], the efflux ratio at 10 µM is 7.48.
Take `C/C=C(\C)C(=O)N[C@@H](c1ccccc1)[C@@H](O)C(=O)O[C@H]1C[C@@]2(O)[C@@H](OC(=O)c3cccc(N=[N+]=[N-])c3)[C@@H]3[C@]4(OC(C)=O)CO[C@@H]4C[C@H](OC(=O)CCl)[C@@]3(C)C(=O)[C@H](O)C(=C1C)C2(C)C`: the Kd in data set [1] worked out at 2750 nM; in data set [2], 0.62 nM. Further, the figures for the IC50 (in the data set on A2780 [3]; in data set [4]) were 17.2 nM and 710 nM, respectively. The “Ratio IC50” value with A2780 [5] is recorded as 41.2. Moreover, the Papp A→B at 10 µM in data set [6] turned out to be 0.19 ×10⁻⁶ cm/s. Moreover, in data set [7], the Papp B→A at 10 µM came to 1.07 ×10⁻⁶ cm/s. The efflux ratio at 10 µM in data set [8] was found to be 5.63.
Regarding `C/C=C(\C)C(=O)N[C@@H](c1ccccc1)[C@@H](O)C(=O)O[C@H]1C[C@@]2(O)[C@@H](OC(=O)c3cccc(N=[N+]=[N-])c3)[C@@H]3[C@]4(OC(C)=O)CO[C@@H]4C[C@H](OC(=O)N(C)C)[C@@]3(C)C(=O)[C@H](O)C(=C1C)C2(C)C`, the figures for the Kd in data set [1] and in data set [2] were 5290 nM and 2.45 nM, respectively. Also, the IC50 with A2780 [3] was determined as 26 nM; in data set [4], 950 nM. Besides, in the data set with A2780 [5], the “Ratio IC50” value is 36.5.
Consider `C/C=C(\C)C(=O)N[C@@H](c1ccccc1)[C@@H](O)C(=O)O[C@H]1C[C@@]2(O)[C@@H](OC(=O)c3cccc(N=[N+]=[N-])c3)[C@@H]3[C@]4(OC(C)=O)CO[C@@H]4C[C@H](OC(=O)C4CC4)[C@@]3(C)C(=O)[C@H](O)C(=C1C)C2(C)C`, for which the results for the Kd in data set [1] and in data set [2] were 2150 nM and 0.95 nM, respectively. Also, the IC50 in the data set on A2780 [3] is 22 nM; in data set [4], 293 nM. Moreover, the “Ratio IC50” value with A2780 [5] was 13.3. Besides, the apical-to-basolateral permeability (Papp A→B) at 10 µM in data set [6] amounted to 7.35 ×10⁻⁶ cm/s. The Papp B→A at 10 µM in data set [7] was found to be 9.4 ×10⁻⁶ cm/s. Besides, the efflux ratio at 10 µM in data set [8] was 1.28.
Take `C/C=C(\C)C(=O)N[C@@H](c1ccccc1)[C@@H](O)C(=O)O[C@H]1C[C@@]2(O)[C@@H](OC(=O)c3cccc(N=[N+]=[N-])c3)[C@@H]3[C@]4(OC(C)=O)CO[C@@H]4C[C@H](OC(=O)CC(F)(F)F)[C@@]3(C)C(=O)[C@H](O)C(=C1C)C2(C)C`: the equilibrium dissociation constant (Kd) in data set [1] was determined as 4310 nM; in data set [2] it was 0.66 nM. The IC50 in the data set on A2780 [3] is 33 nM; in data set [4], 1300 nM. Besides, in the data set with A2780 [5], the “Ratio IC50” value is reported as 39.4. In addition, the Papp A→B at 10 µM in data set [6] worked out at 3 ×10⁻⁶ cm/s. Besides, the Papp B→A at 10 µM in data set [7] was determined as 6.61 ×10⁻⁶ cm/s. The efflux ratio at 10 µM in data set [8] came out at 2.2.
On to `C/C=C(\C)C(=O)N[C@@H](c1ccccc1)[C@@H](O)C(=O)O[C@H]1C[C@@]2(O)[C@@H](OC(=O)c3cccc(N=[N+]=[N-])c3)[C@@H]3[C@]4(OC(C)=O)CO[C@@H]4C[C@H](OC(=O)CNC(=O)OC(C)(C)C)[C@@]3(C)C(=O)[C@H](O)C(=C1C)C2(C)C`, for which the Kd in data set [1] amounted to 6340 nM; in data set [2], 0.81 nM. For the same molecule, the IC50 with A2780 [3] amounted to 15.5 nM; in data set [4] it was 875 nM. The “Ratio IC50” value in the data set with A2780 [5] is on record as 56.4. Also, the Papp A→B at 10 µM in data set [6] amounted to 1.23 ×10⁻⁶ cm/s. The apparent permeability from basolateral to apical (Papp B→A) at 10 µM in data set [7] was 8.53 ×10⁻⁶ cm/s. Moreover, the efflux ratio at 10 µM in data set [8] was found to be 6.93.

(Values after ChEMBL document CHEMBL1806422, “Effects of C7 substitutions in a high affinity microtubule-binding taxane on antitumor activity and drug transport” (Bioorg Med Chem Lett, 2011).)
